From patent US20240132431A1, “METHOD FOR ALKYLATING ACIDIC FUNCTIONAL GROUP” (Chugai Seiyaku Kabushiki Kaisha, priority 2021, published 2024)
Blank lines part the entries; values can stand above or below the molecule they belong to.

Target: T1, Bcl-2 protein (Recombinant Human Bcl-2 Protein) (Homo sapiens, UniProt P10415)
T1 construct: purchased Novus NBP2-34889
Experiment: Binding evaluation of mixture library compounds to Bcl-2 using AS-MS (affinity selection mass spectrometry)
Settings: for ASMS ratio (%) n = 1 / ASMS ratio (%) n = 2: ASMS Ratio(%)=(A−C)/B×100; for ASMS ratio (%) n = 1: replicate n = 1; for ASMS ratio (%) n = 2: replicate n = 2
Method in brief: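 Pooled library of ~1200 compounds ([…] each, final) incubated with recombinant human Bcl-2 (20 μM final) in Tris-HCl pH 7.4, NaCl, Tween-20, DTT buffer, dark, 23° C., 1 h. Bound fraction recovered by SEC spin column, organic extraction, reversed-phase LC/MS. ASMS Ratio (%) = (A−C)/B×100 versus protein-free standard and SEC blank.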

[1] = AS-MS on the mixture of 1200 library compounds
[2] = AS-MS, mixture of 1200 compounds, Bcl-2

T1 sequence (P10415 whole entry): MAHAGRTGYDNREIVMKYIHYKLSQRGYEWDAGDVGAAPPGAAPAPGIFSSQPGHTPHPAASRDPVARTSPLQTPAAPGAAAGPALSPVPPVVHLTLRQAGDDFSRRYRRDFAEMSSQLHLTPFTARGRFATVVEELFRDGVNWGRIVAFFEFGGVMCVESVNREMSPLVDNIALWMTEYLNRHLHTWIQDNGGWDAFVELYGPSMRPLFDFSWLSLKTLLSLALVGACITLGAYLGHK

Molecule: CCOc1cccc(-c2cc(C(=O)N3CCN(c4ccc(C(=O)Nc5ccc(OC)cc5)cc4)CC3)cc(C(F)(F)F)c2)c1 [B1O039-01, 4-[4-[3-(3-Ethoxyphenyl)-5-(trifluoromethyl)benzoyl]piperazin-1-yl]-N-(4-methoxyphenyl)benzamide]
ASMS ratio (%) n = 1 [1]: 5.1%
ASMS ratio (%) n = 2 [1]: 0.2%

Molecule: CCOc1cccc(-c2cc(CN3CCN(c4ccc(C(=O)N(C)CC56CC7CC(CC(C7)C5)C6)nn4)CC3)cc(C(F)(F)F)c2)c1 [B3A087-01, N-(1-Adamantylmethyl)-6-[4-[[3-(3-ethoxyphenyl)-5-(trifluoromethyl)phenyl]methyl]piperazin-1-yl]-N-methylpyridazine-3-carboxamide]
ASMS ratio (%) n = 1 [1]: 0.4%
ASMS ratio (%) n = 2 [1]: 1.4%

Molecule: CCOc1cccc(-c2cc(CN3CCN(c4ccc(C(=O)NS(=O)(=O)CCC(F)(F)F)cc4)CC3)cc(OC(F)(F)F)c2)c1 [B2N063-01, 4-[4-[[3-(3-Ethoxyphenyl)-5-(trifluoromethoxy)phenyl]methyl]piperazin-1-yl]-N-(3,3,3-trifluoropropylsulfonyl)benzamide]
ASMS ratio (%) (n = 1): −0.3%
ASMS ratio (%) (n = 2): −3.8%

Molecule: CCOc1cccc(-c2ccc(CN3CCN(c4ccc(C(=O)N(CC)CC)cc4)CC3)cc2F)c1 [B4J051-01, 4-[4-[[4-(3-Ethoxyphenyl)-3-fluorophenyl]methyl]piperazin-1-yl]-N,N-diethylbenzamide]
ASMS ratio (%) n = 1 [1]: −9.6%
ASMS ratio (%) n = 2 [1]: −10.2%

Molecule: CCOc1cncc(-c2ccc(C(C)N3CCN(c4ccc(C(=O)N(CC)CC)cc4)CC3)c(F)c2)c1 (stereo not drawn) [B4J100-01, 4-[4-[1-[4-(5-Ethoxypyridin-3-yl)-2-fluorophenyl]ethyl]piperazin-1-yl]-N,N-diethylbenzamide]
ASMS ratio (%) n = 1 (AS-MS, mixture library, Bcl-2): 0.0%
ASMS ratio (%) n = 2 (AS-MS, mixture library, Bcl-2): 0.0%

Molecule: CCOc1cncc(-c2csc(CN3CCN(c4ccc(C(=O)NCC56CC7CC(CC(C7)C5)C6)cc4)CC3)c2)c1 [B1A068-01, N-(1-Adamantylmethyl)-4-[4-[[4-(5-ethoxypyridin-3-yl)thiophen-2-yl]methyl]piperazin-1-yl]benzamide]
ASMS ratio (%) n = 1 [2]: 12.2%
ASMS ratio (%) n = 2 [2]: 3.3%

Molecule: CCOc1cncc(-c2ccc(C(=O)N3CCN(c4ccc(C(=O)NS(=O)(=O)CCC(F)(F)F)cc4)CC3)c3ccccc23)c1 [B2N036-01, 4-[4-[4-(5-Ethoxypyridin-3-yl)naphthalene-1-carbonyl]piperazin-1-yl]-N-(3,3,3-trifluoropropylsulfonyl)benzamide]
ASMS ratio (%) (n = 1): 0.0%
ASMS ratio (%) (n = 2): 0.4%

Molecule: 4-[4-[1-[4-(5-Ethoxypyridin-3-yl)phenyl]ethyl]piperazin-1-yl]-N-propylbenzamide [B1M004-01]
ASMS ratio (%) n = 1 [2]: 0.0%
ASMS ratio (%) n = 2 [2]: 0.0%

Other lines, results leading:

ASMS ratio (%) n = 1 [1]: 1.5%
ASMS ratio (%) n = 2 [1]: 2.6%
Molecule: CCOc1cncc(-c2cc(CN3CCN(c4ccc(C(=O)Nc5ccc(OC)cc5)nn4)CC3)cc(OCC)c2)c1 [B1O082-01, 6-[4-[[3-Ethoxy-5-(5-ethoxypyridin-3-yl)phenyl]methyl]piperazin-1-yl]-N-(4-methoxyphenyl)pyridazine-3-carboxamide]

ASMS ratio (%) n = 1 (AS-MS, mixture library, Bcl-2): 0.0%
ASMS ratio (%) n = 2 (AS-MS, mixture library, Bcl-2): 0.0%
Molecule: CCOc1cncc(-c2ccc(CN3CCN(c4ccc(C(=O)N(CC)CC)nn4)CC3)c(OC)c2)c1 [B4J080-01]

ASMS ratio (%) n = 1 (AS-MS, mixture library, Bcl-2): 3.7%
ASMS ratio (%) n = 2 (AS-MS, mixture library, Bcl-2): 1.5%
Molecule: CCOc1cccc(-c2ccc(CN3CCN(c4ccc(C(=O)N(CC)CC)nn4)CC3)c3ccccc23)c1 [B4J091-01, 6-[4-[[4-(3-Ethoxyphenyl)naphthalen-1-yl]methyl]piperazin-1-yl]-N,N-diethylpyridazine-3-carboxamide]

ASMS ratio (%) n = 1 [2]: 0.0%
ASMS ratio (%) n = 2 [2]: 7.4%
Molecule: CCOc1cncc(C#Cc2ccccc2CN2CCN(c3ccc(C(=O)NCC45CC6CC(CC(C6)C4)C5)nn3)CC2)c1 [B1A096-01, N-(1-Adamantylmethyl)-6-[4-[[2-[2-(5-ethoxypyridin-3-yl)ethynyl]phenyl]methyl]piperazin-1-yl]pyridazine-3-carboxamide]
